Holding throughout (assay): Post-emergent Test I herbicidal activity
What all share (format): in vivo

The test system of test [1] is SETFA: giant foxtail (Setaria faberi). The settings on record: post-emergence, 336 h, read-out: Visual Growth Reduction (%) 14 Days After Application, SETFA; for pest or weed control at 4000 g/ha: 4 kg ai/ha; for pest or weed control at 3840 g/ha: 3.84 kg ai/ha. Here is the method:
(§1) Post-emergent Test I Seeds test species were obtained from commercial suppliers and planted into a 13 cm diameter-round pot containing soil-less media mix (metro-mix 360®, Sun Gro Horticulture). Postemergence treatments were planted 8-12 days prior to application and cultured in a greenhouse equipped with supplemental light sources to provide a 16 h photoperiod at 24-29° C. All pots were surface irrigated.
(§2) A weighted amount, determined by the highest rate to be tested, of each compound was dissolved in 1.3 mL acetone-DMSO (97:3, v/v) and diluted with 4.1 mL water-isopropanol-crop oil concentrate (78:20:2, v/v/v) containing 0.02% Triton X-155 to obtain concentrated stock solutions. Additional application rates were obtained by serial dilution of the high rate solution into a solution containing appropriate volume of 97:3 v/v mixture of acetone and DMSO and appropriate volume of an aqueous mixture of water, isopropyl alcohol, crop oil concentrate (78:20:2, v/v/v) containing 0.02% Triton X-155.
(§3) Formulated compounds were applied using a DeVilbiss® compressed air sprayer at 2-4 psi. Following treatment, pots were returned to the greenhouse for the duration of the experiment. All pots were sub-irrigated as need to provide optimum growing conditions. All pots were fertilized one time per week by subirrigating with Peters Peat-Lite Special® fertilizer (20-10-20).
(§4) […] All evaluations were made visually on a scale of 0 to 100 where 0 represents no activity and 100 represents complete plant death. Visual assessments of plant injury were made based on growth reduction, discoloration, leaf deformity and necrosis.

Test [2] has as its system IPOHE: ivyleaf morningglory (Ipomoea hederecea). The settings on record: post-emergence, 336 h, read-out: Visual Growth Reduction (%) 14 Days After Application, IPOHE; for pest or weed control at 4000 g/ha: 4 kg ai/ha; for pest or weed control at 3840 g/ha: 3.84 kg ai/ha. Here is the method:
as §1, §2, §3, §4

In test [3] the test system is HELAN: sunflower (Helianthus annuus). As to conditions: post-emergence, 336 h, read-out: Visual Growth Reduction (%) 14 Days After Application, HELAN; for pest or weed control at 4000 g/ha: 4 kg ai/ha; for pest or weed control at 3840 g/ha: 3.84 kg ai/ha. Here is the method:
as §1, §2, §3, §4

The subject of test [4] is ECHCG: barnyardgrass (Echinochloa crus-galli). As to conditions: post-emergence, 336 h, read-out: Visual Growth Reduction (%) 14 Days After Application, ECHCG; for pest or weed control at 4000 g/ha: 4 kg ai/ha; for pest or weed control at 3840 g/ha: 3.84 kg ai/ha. Here is the method:
as §1, §2, §3, §4

The test system of test [5] is AVEFA: wild oats (Avena fatua). The settings on record: post-emergence, 336 h, read-out: Visual Growth Reduction (%) 14 Days After Application, AVEFA; for pest or weed control at 4000 g/ha: 4 kg ai/ha; for pest or weed control at 3840 g/ha: 3.84 kg ai/ha. The procedure:
as §1, §2, §3, §4

Test [6] concerns AMARE: redroot pigwseed (Amaranthus retroflexus). The settings on record: post-emergence, read-out: Visual Growth Reduction (%), AMARE; for pest or weed control at 4000 g/ha: 4 kg ai/ha; for pest or weed control at 3840 g/ha: 3.84 kg ai/ha. Here is the method: as §1, §2, §3, §4

For the compound `COC(=O)c1nc(-c2ccc(Br)cc2)c(F)c(N)c1Cl` [Compound 138, Methyl 4-amino-6-(4-bromophenyl)-3-chloro-5-fluoropicolinate], the pest or weed control at 4000 g/ha in test [1] fell in the range of 95 to 100%; in test [2], 95 to 100%; in test [3] it was 95 to 100%; in test [4], 95 to 100%; in test [5], 75 to 84%; in test [6] it was 95 to 100%.

Regarding `COC(=O)c1nc(-c2ccc(C#N)cc2)c(F)c(N)c1Cl` [Compound 142], the pest or weed control at 3840 g/ha fell in the range of 60 to 74% in test [1]; 95 to 100% in test [2]; 95 to 100% in test [3]; 95 to 100% in test [4]; 45 to 59% in test [5]; 95 to 100% in test [6].

`Nc1c(F)c(-c2ccc(Br)c(F)c2F)nc(C(=O)O)c1Cl` [Compound 147]: the pest or weed control at 3960 g/ha in test [1] (3.96 kg ai/ha) was 95 to 100%; in test [2] (3.96 kg ai/ha), 95 to 100%; in test [3] (3.96 kg ai/ha), 95 to 100%; in test [4] (3.96 kg ai/ha), 95 to 100%; in test [5] (3.96 kg ai/ha), 75 to 84%; in test [6] (3.96 kg ai/ha), 95 to 100%.

Take `N#Cc1ccc(-c2nc(C(=O)O)c(Cl)c(N)c2F)cc1F` [Compound 156]: the pest or weed control at 4040 g/ha fell in the range of 85 to 94% in test [1] (4.04 kg ai/ha); 95 to 100% in test [2] (4.04 kg ai/ha); 95 to 100% in test [3] (4.04 kg ai/ha); 95 to 100% in test [4] (4.04 kg ai/ha); 75 to 84% in test [5] (4.04 kg ai/ha); 95 to 100% in test [6] (4.04 kg ai/ha).

Consider `COC(=O)c1nc(-c2ccccc2)c(F)c(N)c1Cl` [Compound 181], for which the pest or weed control at 1760 g/ha fell in the range of 0 to 29% in test [1] (1.76 kg ai/ha); 75 to 84% in test [2] (1.76 kg ai/ha); 95 to 100% in test [3] (1.76 kg ai/ha); 0 to 29% in test [4] (1.76 kg ai/ha); 0 to 29% in test [5] (1.76 kg ai/ha); 95 to 100% in test [6] (1.76 kg ai/ha).

With `COC(=O)c1nc(-c2ccc(C(F)F)c(F)c2)cc(N)c1Cl` [Compound 196], the pest or weed control at 3840 g/ha in test [1] fell in the range of 95 to 100%; in test [2], 85 to 94%; in test [3], 95 to 100%; in test [4] it was 95 to 100%; in test [5] it was 60 to 74%; in test [6] it was 95 to 100%.

With `COC(=O)c1nc(-c2ccc(C(F)F)cc2)c(F)c(N)c1Cl` [Compound 209], the pest or weed control at 4000 g/ha in test [1] fell in the range of 95 to 100%; in test [2] it was 85 to 94%; in test [3], 95 to 100%; in test [4], 95 to 100%; in test [5], 85 to 94%; in test [6] it was 95 to 100%.

Values taken from US9113629B2, “4-amino-6-(4-substituted-phenyl)-picolinates and 6-amino-2-(4-substituted-phenyl)-pyrimidine-4-carboxylates and their use as herbicides” (DOW AGROSCIENCES LLC, priority 2013, dated 2015).
